The values that follow are results of earlier work, collected in patent publication US20210128641A1, “COMPOSITIONS AND METHODS FOR TREATING SKIN AND MUCOUS MEMBRANE DISEASES” (The Regents of the University of California, priority 2014, published 2021).

One data set concerns Propionibacterium acnes. To be noted: in vitro.
Another data set deals with keratinocytes. To be noted: in vitro.

On to Lactobacillus acidophilus, for which the “growth of Propionibacterium acnes on agar plates” value in the data set with Propionibacterium acnes was “inhibit growth”.

As for Lactobacillus plantarum, the “growth of Propionibacterium acnes on agar plates” value in the data set with Propionibacterium acnes is recorded as “inhibit growth”.

As to Lactobacillus reuteri, the “death of keratinocytes caused by Staphylococcus aureus” value in the data set on keratinocytes is given as “reduced death”.
